Data from patent publication US8802723B2, “Metabolic syndrome-improving agent and medicine, supplement, functional food and food additive containing the same” (ARKRAY, Inc., priority 2005, dated 2014).

What was measured:
[1] = tested on: adiponectin secretion in 3T3-L1 cells; test: adiponectin secretion amount of 3T3-L1 adipocytes by ELISA; assay type: cell-based; conditions: for Adiponectin secretion amount: 3T3-L1 medium supernatant 7 days after differentiation induction, non-treatment control 3.49 ± 0.78, average ± standard error
Description: Next, culture preadipocytes 3T-L1 were thawed, inoculated in a 100 mm dish and cultured until 3T3-L 1 cells reached about 80% confluence. A single dish of 3T3-L1 that had reached about 80% confluence was subcultured to a single 6-well plate and further cultured until the 3T3-L1 cells reached confluence in the 6-well plate, and then the medium was replaced with the differentiation induction medium, followed by differentiation induction. 48 hours later, the medium was replaced with the differentiation promotion medium, and thereafter, the medium was replaced with the differentiation promotion medium every two days. 7 days after the initiation of the differentiation induction, mRNA was extracted using Sepasol(R)—RNA I super (manufactured by Nacalai Tesque, Inc.), and the mRNA expression amounts of 36B4, aP2 and adiponectin, which were indicators of an early period of adipocyte differentiation, were measured using Light Cycler™. Also, the medium 7 days after the differentiation induction was taken in an amount of 1 mL from each well, and the amount of adiponectin in the medium supernatant was measured using a mouse/rat adiponectin ELISA kit (trade name) (manufactured by Otsuka Pharmaceutical Co., Ltd.). […]
Only the strips of the antibody plates necessary for the analysis were taken out. […] 100 μL of the standard solutions with respective concentrations and 100 μL of the diluted analytes were added to individual wells and measured in duplicate. Incidentally, the standard solutions always were measured for each measurement and each plate. […] After 100 μL of the substrate solution was added to each well of the antibody plate and allowed to stand still for reaction for 15 minutes at room temperature, 100 μL of the reaction stop solution was added to each well of the antibody plate, and then the absorbance at 450 nm in each well was measured with a plate reader.

HepG2 cells = test: counting of the number of living cells (CellTiter 96 Aqueous One Solution); assay type: cell-based, human; conditions: HepG2, 30 hours, control (DMSO) = 100
Description: HepG2 was cultured to 80% to 90% confluence in a 100 mm/Collagen-Coated Dish (trade name, manufactured by Iwaki Glass Works, Co.). The medium was removed from the above-noted dish with a pipette and then HepG2 was washed with 2 mL of 1×PBS. Then, 2 mL of trypsin-EDTA was added, the above-noted dish was rotated slowly so that the trypsin-EDTA spread over the entire cells, this trypsin-EDTA was removed with a pipette, and the dish was allowed to stand still for 15 minutes in a CO2 incubator (37° C., 5%). To this dish, 12 mL of a growth medium was added, followed by mixing by pipetting, and 1 mL of this mixture solution was dispensed in each well of Collagen-Coated Microplates 12Well/Flat Bottom (trade name, manufactured by Iwaki Glass Works, Co.). After the cells were checked using a microscope, the wells were cultured in a CO2 incubator (37° C., 5%) for one to two days. After checking that 80% to 90% confluence was achieved using the microscope, a medium replacement was carried out by removing the medium and adding 800 μL of a medium containing aurapten. […] Using this collected medium, the number of living cells were counted, and the Western blotting and the ELISA measurement were carried out similarly to the above. From the result of the ELISA, the ratio of the VLDL secretion amount between the measurement group and the non-treated control group (measurement group/control group) was calculated for each sample.
The measurement was made using CellTiter 96 Aqueous One Solution Cell Proliferation Assay (trade name, manufactured by Promega Corporation). […] 100 μL of this mixture solution was dispensed to each of three wells of ELISA PLATE 96 well (trade name, manufactured by Iwaki Glass Works, Co.), and the absorbance at 490 nm was measured. The measurement was made using wallac ARVOsx (trade name, PerkinElmer Life Sciences, PerkinElmer, Inc.), and the mode of measurement was Absorbance (490 nm, 1.0 S). The ratio of the number of living cells between the measurement group and the non-treated control group (measurement group/control group) was calculated for each sample.

CC(C)=CCC/C(C)=C/COc1ccc2ccc(=O)oc2c1 [Aurapten, aurapten]
Adiponectin secretion amount ([1]; aurapten 1 μM): 3.64 ± 0.82
Adiponectin secretion amount ([1]; aurapten 5 μM): 4.69 ± 0.16
effect on adiponectin secretion in adipocytes (in words) ([1]; compared with non-treated control medium): enhance the secretion of adiponectin
Number of living cells (%) (HepG2 cells; aurapten 10 μM): 100.3%
Number of living cells (%) (HepG2 cells; aurapten 20 μM): 99.9%
Number of living cells (%) (HepG2 cells; aurapten 50 μM): 98.7%
